Experimental data published in patent publication US20220289788A1, “3-HYDROXY-5-PREGNANE-20-ONE DERIVATIVE AND USE THEREOF” (priority 2019, published 2022).
Where a name gives a salt, the structure may show the parent alone.

What was measured:
[1] = Stability of compound in 5% glucose solution (HPLC purity over time); format: physicochemical; conditions: about 1 mg/g, room temperature
Method: An appropriate amount of the derivative of the present invention was weighed respectively, dissolved in a 5% glucose solution and prepared into a solution with a concentration of about 1 mg/g.
(1) Blank solution: Methanol.
(2) Sample solution: A suitable solution was taken and filtered through a 0.22 μm filter membrane.

[2] = physchem; conditions: 25 °C, thermodynamic from solid
[3] = Pharmacokinetic testing after single oral administration, allopregnanolone detected in plasma; format: in vivo; conditions: male SD rats, i.g. 20 mg/kg (as allopregnanolone)
Description: The object of this experiment is to study the single oral administration of each compound solution of the present invention, and an allopregnanolone solution, to detect allopregnanolone, an active ingredient in plasma, and to evaluate its pharmacokinetic (PK) properties in SD rats. The solution was to dissolve each compound in an aqueous solution containing 5% Tween 20.
The male SD rats used in this embodiment, weighing 180-220 g, were purchased from Shanghai SLAC Laboratory Animal Co., Ltd. All animals were fasted overnight, until 4 hours after administration.
The experimental SD rats were grouped by randomized block design, and 5 rats in each group, namely allopregnanolone group, compound 1 hydrochloride group, compound 2 hydrochloride group, compound 14 hydrochloride group, and compound 15 hydrochloride group. Each group was administered by irrigation (i.g.) at a dose of 20 mg/kg (as measured by allopregnanolone).
0.0833 h, 0.25 h, 0.5 h, 1 h, 2 h, 3 h, 4 h, 6 h, 9 h, 12 h, 24 h after the administration, about 0.6 mL of blood sample was collected from peripheral veins and transferred to a commercial centrifuge tube containing 0.85 to 1.15 mg of K2 EDTA anticoagulant (Jiangsu Kangjian Medical Products Co., Ltd.). Within 30 minutes after blood collection, plasma was centrifuged (centrifugation at 3,000 g for 10 minutes at approximately 4° C.). The plasma was placed in a labeled polypropylene tube, quick-frozen in dry ice, then stored in an ultra-low temperature freezer at −60° C. or lower for testing. LC-MS/MS bioassay was used to detect the concentration of drug in SD rat plasma. Blood concentration-time data was analyzed using a non-compartment model and a WinNonlin software package (version6.3 or later), as shown in Table-3.

[4] = cited from earlier work
[5] = pH 4.5 buffer solution, pH 4.5, aqueous buffer

SMILES	solubility at 24 h ([2]; water) [µg/mL]	solubility at 24 h [2, 5] [µg/mL]	AUC0-last [3] [ng′ hours/mL]	other results
CC(=O)[C@H]1CC[C@H]2[C@@H]3CC[C@H]4C[C@H](OC(=O)[C@H](C)NC(=O)[C@@H](N)C(C)C)CC[C@]4(C)[C@H]3CC[C@]12C [Compound 10 hydrochloride]	–	–	–	Purity ([1]; 0 hour): 99.12%; Purity ([1]; 1 hour): 99.09%; Purity ([1]; 3 hours): 99.04%; Purity ([1]; 5 hours): 98.05%; Purity ([1]; 8 hours): 97.89%
CC(=O)[C@H]1CC[C@H]2[C@@H]3CC[C@H]4CC(OC(=O)C(NC(=O)C(N)CC(C)C)C(C)C)CC[C@]4(C)[C@H]3CC[C@]12C (stereo partly drawn) [Compound 7 hydrochloride]	7380	–	–	–
CC(=O)[C@H]1CC[C@H]2[C@@H]3CC[C@H]4C[C@H](OC(=O)CNC(=O)[C@@H](N)C(C)C)CC[C@]4(C)[C@H]3CC[C@]12C [Compound 14 hydrochloride]	> 10000	> 50000	150.2	–
CC(=O)[C@H]1CCC2[C@@H]3CCC4CC(OC(=O)C(NC(=O)CN)C(C)C)CC[C@]4(C)C3CC[C@@]21C (stereo partly drawn) [Compound 2 hydrochloride]	> 10000	> 10000	196.0	Purity ([1]; 0 hour): 95.00%; Purity ([1]; 1 hour): 94.59%; Purity ([1]; 3 hours): 94.50%; Purity ([1]; 5 hours): 94.05%; Purity ([1]; 8 hours): 94.33%
CC(=O)[C@H]1CC[C@H]2[C@@H]3CC[C@H]4C[C@H](OC(=O)[C@@H](NC(=O)C(C)N)C(C)C)CC[C@]4(C)[C@H]3CC[C@]12C (stereo partly drawn) [Compound 6 hydrochloride]	5680	–	–	–
CC(=O)[C@H]1CC[C@H]2[C@@H]3CC[C@H]4C[C@H](OC(=O)CNC(=O)CN)CC[C@]4(C)[C@H]3CC[C@]12C [Compound 15 hydrochloride]	1110	–	166.3	–
CC(=O)[C@H]1CC[C@H]2[C@@H]3CC[C@H]4C[C@H](O)CC[C@]4(C)[C@H]3CC[C@]12C [Allopregnanolone, allopregnanolone, reference compound]	–	–	24.9	human plasma half-life period [4]: about 45 minutes
CC(=O)[C@H]1CC[C@H]2[C@@H]3CC[C@H]4C[C@H](OC(=O)CNC(=O)[C@H](C)N)CC[C@]4(C)[C@H]3CC[C@]12C [Compound 23 hydrochloride]	640	970	–	–
CC(=O)[C@H]1CC[C@H]2[C@@H]3CC[C@H]4C[C@H](OC(=O)[C@H](C)NC(=O)CN)CC[C@]4(C)[C@H]3CC[C@]12C [Compound 12 hydrochloride]	2620	1910	–	–
CC(=O)[C@H]1CC[C@H]2[C@@H]3CC[C@H]4C[C@H](OC(=O)[C@H](C)OC(=O)[C@@H](N)C(C)C)CC[C@]4(C)[C@H]3CC[C@]12C [Compound 13 hydrochloride]	370	10	–	–
CC(=O)[C@H]1CCC2[C@@H]3CCC4CC(OC(=O)C(NC(=O)C(N)Cc5c[nH]c6ccccc56)C(C)C)CC[C@]4(C)C3CC[C@@]21C (stereo partly drawn) [Compound 5 hydrochloride]	70	–	–	–
CC(=O)[C@H]1CCC2[C@@H]3CCC4CC(OC(=O)C(NC(=O)C5CCCN5)C(C)C)CC[C@]4(C)C3CC[C@@]21C (stereo partly drawn) [Compound 4 hydrochloride]	190	–	–	–
